Laboratory results reported in patent US20150051191A1, “TREATMENT OF ALCOHOLISM USING IBUDILAST” (MEDICINOVA, INC., priority 2013, published 2015).
Values belong to the molecule of their own block, whether it stands above or below them.

What was measured:
[1] = system: alcohol-preferring (P) rats; assay: voluntary ethanol consumption in alcohol-preferring (P) rats; type: in vivo, rat; conditions: for ethanol drinking relative to controls: Relapse Test phase, p<0.05
Method: (§1) The ability of ibudilast (MN-166) to decrease voluntary ethanol consumption, under blind testing conditions, in selectively-bred alcohol-preferring (P) and high-alcohol-drinking (HAD1) rats and in a mouse model of ethanol dependence was examined.
(§2) To perform the study, adult male P and HAD1 rats were randomly assigned to receive one of the following four doses of ibudilast—0 mg/Kg, 3 mg/Kg, 6 mg/Kg, or 9 mg/Kg with eight rats assigned to each dose. Each dosing group was balanced to average a 2 h/day ethanol (15% v/v) intake. Water was concurrently available to the rats and Mazola corn oil was used as the vehicle.
(§3) The study was divided into four test phases. In the maintenance test phase rats in the treatment group were injected ibudilast subcutaneously (2 mL/kg s.c.), using standard solutions that deliver 3 mg/Kg, 6 mg/Kg or 9 mg/Kg of ibudilast, 60 min before each ethanol test session and the same dose of ibudilast was administered subcutaneously to the rats 8 hours later. Rats in the control group, however, are administered 2 mL/Kg Mazola corn oil subcutaneously. This protocol was carried out for 4 consecutive days. Following the maintenance test phase, is a two week no drug recovery phase during which rats are permitted access to ethanol and the amount of ethanol consumed by the rats was measured.
(§4) The recovery phase is followed by a two week forced ethanol abstinence phase. Following forced abstinence, the effects of ibudilast on ethanol drinking were examined by re-introducing ethanol to rats for a period of 5 consecutive days (i.e., the Relapse Test phase). Each animal received the same dose of ibudilast during maintenance and relapse test phases.

[2] = system: high-alcohol-drinking (HAD1) rats; assay: voluntary ethanol consumption in high-alcohol-drinking (HAD1) rats; type: in vivo, rat
Method: as §1, §2, §3, §4

C57BL/6J mice = assay: mouse model of ethanol dependence, chronic intermittent ethanol (CIE) exposure; type: in vivo; conditions: for ethanol intake of alcohol dependent mice compared with control group counterparts / reduction of ethanol intake, alcohol dependent versus control mice: Test Cycle 9; for ethanol consumption relative to vehicle: Test Cycle 8
Method: Briefly, mice were divided into test (ethanol dependent) and control (non-ethanol dependent) groups. Mice in the former group were exposed to chronic intermittent ethanol (CIE) vapor (16 hr/day×4 days), and then forced to abstain from alcohol for 72 hours. Mice were then permitted access to ethanol for 2 h/day for a 5-day test period. This pattern of weekly CIE exposures followed by 5-day test periods was repeated for 9 cycles. Mice in the control group were treated in the same manner, except these animals were exposed to air rather than ethanol vapors. Mice from both groups were further divided into four sub-groups with animals receiving 0 mg/Kg, 3 mg/Kg, 6 mg/Kg or 12 mg/Kg dose of ibudilast. In a separate study, adult male C57BL/6J mice were used to evaluate ibudilast as a therapeutic for the treatment of alcohol dependence. Two groups of mice were used for the study. Mice in the first group were trained to drink ethanol using a 2 h/day free-choice (15% v/v ethanol) drinking procedure (ethanol dependent (EtOH) mice), while mice in the second group were provided water and served a control (ethanol nondependent (CTL)) mice. Both the ethanol dependent and ethanol non-dependent groups had equal number of mice (N=37-38/group). Mice in the alcohol dependent group were then exposed to chronic intermittent ethanol (CIE) vapors for 16 hr/day over four days. After a 72 hours forced abstinence period, the ethanol dependent mice were again permitted access to ethanol for 2 hours each day over a 5 consecutive test days. This pattern of chronic intermittent ethanol vapor exposure for four consecutive days followed by forced abstinence and a five day ethanol access test period was repeated for 9 cycles. […] Both control and ethanol dependent mice received subcutaneous (s.c.) injections of the vehicle at 9 hours and 1 hour prior to the start of daily drinking sessions during Test Cycles 4, 5 and 6 to acclimate the animals to handling and administration of injections. At the end of test cycle 6, mice in the ethanol dependent group and the control group were separated into four sub-groups with animals receiving one of four doses of ibudilast—0 mg/Kg, 3 mg/Kg, 6 mg/Kg or 12 mg/Kg during Test Cycles 7 and 8. Each sub-group contained 9-10 mice (N=9-10/group). The dose of ibudilast was increased during Test Cycle 9 with ethanol dependent and control mice receiving one of the following four doses of ibudilast—0 mg/Kg, 6 mg/Kg, 12 mg/Kg, or 18 mg/Kg. Thus, mice previously receiving a dose of 3 mg were administered ibudilast at a dose of 18 mg/Kg during Test Cycle 9.

[3] = in vivo; cited from earlier work
[4] = 4-day maintenance test-phase, each dose (3, 6, 9 mg/Kg), p<=0.001
[5] = 5-day Relapse Test phase after two week forced abstinence
[6] = especially at the 9 mg/Kg dose, effect diminished over the 5-day test phase
[7] = maintenance test phase, 4 days, ibudilast s.c. 60 min before session and 8 hours later, 2 h/day ethanol 15% v/v
[8] = relapse test phase, data not shown

24-hour water intake ([1]; especially at the 9 mg/Kg dose): not water intake | 24-hour water intake ([2]; especially at the 9 mg/Kg dose): not water intake
Compound: CC(C)C(=O)c1c(C(C)C)nn2ccccc12 [ibudilast, Ibudilast]
ethanol intake relative to vehicle-injected controls [1, 4]: reduced ethanol intake | reduction of ethanol intake [1, 5]: about 50% | ethanol drinking relative to controls ([1]; 6 mg/Kg): significantly reducing ethanol drinking | ethanol drinking relative to controls ([1]; 9 mg/Kg): significantly reducing ethanol drinking | 24-hour food intake [1, 6]: transitory reductions in 24-hour food intake | reduction of ethanol intake [1, 7]: approximately 50% | Dose x Day interaction of reduced ethanol intake [1, 8]: most robust on the first day | ethanol intake relative to vehicle-injected controls [2, 4]: reduced ethanol intake | reduction of ethanol intake [2, 5]: about 50% | ethanol intake compared to controls ([2]; Relapse Test phase, each test dose, p<0.05): reduce ethanol intake compared to controls | 24-hour food intake [2, 6]: transitory reductions in 24-hour food intake | reduction of ethanol intake [2, 7]: approximately 50% | Dose x Day interaction of reduced ethanol intake [2, 8]: most robust on the first day | ethanol intake of alcohol dependent mice compared with control group counterparts (C57BL/6J mice; 6 mg ibudilast, p<0.05): consumed significantly more ethanol | ethanol intake of alcohol dependent mice compared with control group counterparts (C57BL/6J mice; 12 mg/Kg): no significant difference in ethanol intake | reduction of ethanol intake, alcohol dependent versus control mice (C57BL/6J mice; 12 mg/Kg): more effective at reducing ethanol intake in alcohol dependent mice than control mice | ethanol intake of alcohol dependent mice compared with control group counterparts (C57BL/6J mice; 18 mg/Kg): no significant difference in ethanol intake | reduction of ethanol intake, alcohol dependent versus control mice (C57BL/6J mice; 18 mg/Kg): more effective at reducing ethanol intake in alcohol dependent mice than control mice | ethanol intake (C57BL/6J mice; alcohol dependent mice, 12 mg/Kg s.c., Test Cycle 7 (implied, FIG. 2)): reduced ethanol in alcohol dependent mice | ethanol consumption relative to vehicle (C57BL/6J mice; alcohol dependent mice, 12 mg/Kg, p<0.05): reduced ethanol consumption to a greater extent | ethanol intake of test (ethanol dependent) mice relative to control group levels (C57BL/6J mice; at the higher doses): below those for mice in the control group | ethanol consumption relative to vehicle (C57BL/6J mice; control (CTL) mice, 12 mg/Kg, p<0.05): reduced ethanol consumption to a greater extent

Compound: CC[C@@H](C(N)=O)N1CCCC1=O [levatiracetam]
selective reduction of ethanol drinking [3]: do not selectively reduce ethanol drinking

Compound: OCCOCCN1CCN(C2=Nc3ccccc3Sc3ccccc32)CC1 [quetiapine]
selective reduction of ethanol drinking [3]: do not selectively reduce ethanol drinking
